Consider three compounds from ChEMBL document CHEMBL4765358, “Discovery of highly potent and selective antiparasitic new oxadiazole and hydroxy-oxindole small molecule hybrids” (Eur J Med Chem, 2020).

Series [1] concerns Trypanosoma cruzi. Put plainly: Antitrypanosomal activity against Trypanosoma cruzi (MHOM/CH/00/Tulahuen C2, lacZ) amastigotes infected in HFF-1 cells assessed as reduction in parasite growth at 150 uM incubated for 120 hrs by CPRG/Igepal substrate based photometric method relative to control. It counts as functional. The settings on record: MHOM/CH/00/Tulahuen C2, HFF-1.
A short description of series [2]: Cytotoxicity against human HepG2 cells assessed as reduction in cell viability incubated for 120 hrs by MTS assay. It counts as cell-based.
Series [3] relates to Trypanosoma cruzi. The series is described as follows: Antitrypanosomal activity against Trypanosoma cruzi (MHOM/CH/00/Tulahuen C2, lacZ) amastigotes infected in HFF-1 cells assessed as reduction in parasite growth at 75 uM incubated for 120 hrs by CPRG/Igepal substrate based photometric method relative to control. It counts as functional. The settings on record: MHOM/CH/00/Tulahuen C2, HFF-1.

For series [4], the system named is Trypanosoma cruzi. Put plainly: Antitrypanosomal activity against Trypanosoma cruzi (MHOM/CH/00/Tulahuen C2, lacZ) amastigotes infected in HFF-1 cells assessed as reduction in parasite growth incubated for 120 hrs by CPRG/Igepal substrate based photometric method. It counts as functional, organism-based. The settings on record: MHOM/CH/00/Tulahuen C2, HFF-1, 120 h.

For series [5], the system named is Leishmania infantum. Put plainly: Antileishmanial activity against Leishmania infantum MHOM/MA/67/ITMAP-263 infected in THP1 cells assessed as reduction in parasite growth incubated for 120 hrs by Giemsa staining based inverted microscopic analysis. The series is classed as functional, organism-based. The settings on record: MHOM/MA/67/ITMAP-263, THP-1, 120 h.

Series [6] concerns Trypanosoma cruzi. The series is described as follows: Antitrypanosomal activity against Trypanosoma cruzi (MHOM/CH/00/Tulahuen C2, lacZ) amastigotes infected in HFF-1 cells assessed as reduction in parasite growth at 300 uM incubated for 120 hrs by CPRG/Igepal substrate based photometric method relative to control. The series is classed as functional. The settings on record: MHOM/CH/00/Tulahuen C2, HFF-1.

A short description of series [7]: Cytotoxicity against human HFF-1 cells assessed as reduction in cell viability incubated for 120 hrs by MTS assay. The series is classed as cell-based. Background: Tetrazolium assays rely on reduction of a dye to a coloured formazan, in cell work by metabolically active cells.

One may read the inhibition as the relative decrease from the control value, in per cent. A word on the CC50: it is the concentration at which the toxic effect on the cells reaches its halfway point. A word on the IC50: it is the midpoint of a concentration-inhibition curve. For the compound `C=C(c1nc(-c2ccccc2)no1)C(O)c1cccc(Cl)c1` (stereo unspecified), the inhibition at 150 µM in series [1] is 98.6%. The cytotoxic concentration (CC50) at 120 h in series [2] was 20.2 µM; in series [7], over 64 µM. The inhibition at 75 µM in series [3] was found to be 90.5%. Also, the concentration for half-maximal inhibition (IC50) in series [4] amounted to 6.2 µM; in series [5], 7.76 µM. Besides, in series [6], the inhibition at 300 µM amounted to 100%.

With `C=C(c1nc(-c2ccccc2)no1)C(O)c1cccnc1` (stereo unspecified), the inhibition at 150 µM in series [1] turned out to be 99.6%. The CC50 at 120 h in series [2] is 19 µM; in series [7] it was over 64 µM. Moreover, the inhibition at 75 µM in series [3] turned out to be 89.5%. The IC50 came to 2.2 µM in series [4] and 8.51 µM in series [5]. In series [6], the inhibition at 300 µM amounted to 100%.

Turning to `C=C(c1nc(-c2ccccc2)no1)C1(O)C(=O)N(CC)c2ccc([N+](=O)[O-])cc21` (stereo unspecified), in series [1], the inhibition at 150 µM was 85.4%. The half-maximal cytotoxic concentration (CC50) at 120 h in series [2] is 3.61 µM; in series [7] it was over 64 µM. Also, in series [3], the inhibition at 75 µM stood at 78.9%. The concentration for half-maximal inhibition (IC50) in series [4] is over 6.7 µM; in series [5], 5.13 µM. Further, the inhibition at 300 µM in series [6] was determined as 100%.
